pIC50, pKi: −log10 of the molar value.
Assays:
[1] = target: T1, ICE (Homo sapiens, UniProt P29466); assay: ICE inhibition, Ki determination (fluorogenic substrate Ac-Tyr-Val-Ala-Asp-AMC); type: biochemical; details: 15 µM Ac-Tyr-Val-Ala-Asp-AMC, 0.5 nM enzyme, 30°C, reversible competitive model
T1 sequence (P29466 120-297 limits assumed): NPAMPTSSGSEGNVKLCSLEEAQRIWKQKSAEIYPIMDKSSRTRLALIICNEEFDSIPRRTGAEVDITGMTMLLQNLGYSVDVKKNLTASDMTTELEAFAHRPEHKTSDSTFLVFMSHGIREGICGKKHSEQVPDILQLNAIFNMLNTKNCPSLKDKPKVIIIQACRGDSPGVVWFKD
T1 sequence (P29466 317-404 limits assumed): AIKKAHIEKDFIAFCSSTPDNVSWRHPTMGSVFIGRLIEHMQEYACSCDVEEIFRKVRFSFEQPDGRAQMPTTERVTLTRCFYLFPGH

[2] = target: T2, Ich-2 enzyme (Homo sapiens, UniProt P49662); assay: Ich-2 Colorimetric Dose-Response (IC50) Assay; type: biochemical; details: enzyme 64 nM, 60 µM Ac-Leu-Glu-Val-Asp-pNA; read-out: ICH2 IC50 (Caspase 4)
T2 sequence (P49662 81-270 limits assumed): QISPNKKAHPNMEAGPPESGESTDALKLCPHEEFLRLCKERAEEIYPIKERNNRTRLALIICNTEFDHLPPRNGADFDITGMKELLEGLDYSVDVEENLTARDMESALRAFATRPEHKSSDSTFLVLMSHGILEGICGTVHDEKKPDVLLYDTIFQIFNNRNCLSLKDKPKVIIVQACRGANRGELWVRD
T2 sequence (P49662 290-377 limits assumed): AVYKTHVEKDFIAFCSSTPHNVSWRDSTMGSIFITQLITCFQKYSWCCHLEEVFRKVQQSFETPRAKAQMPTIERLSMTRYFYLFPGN
Procedure, shortened: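 Enzyme at 64 nM in HGE buffer (Hepes pH 7.5, EDTA, glycerol, BSA), activated with 5 mM DTT, preincubated 60 min at ambient temperature with two-fold serially diluted inhibitor, in triplicate. Ac-Leu-Glu-Val-Asp-pNA added at 60 µM; A405 followed for 1 h at 25°C, rate used as activity.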

[3] = target: T1, ICE; assay: ICE Colorimetric Dose-Response (IC50) Assay; type: biochemical; details: 60 minutes preincubation, 50 µM Ac-Tyr-Val-Ala-Asp-pNA, 25°C
Procedure, shortened: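 Human ICE (~24 nM in HGE buffer, pH 7.5, activated with 5 mM DTT) preincubated 60 min at ambient temperature with two-fold serial inhibitor dilutions, in triplicate. Ac-Tyr-Val-Ala-Asp-pNA added at 50 µM; A405 followed for 1 h at 25°C starting 5 min after substrate, activity taken as mean rate.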

[4] = system: IL-1β production in human peripheral blood mononuclear cells (PBMCs); assay: PBMC Cellular Assay - IC50 Determinations (LPS-stimulated IL-1β production, ELISA); type: cell-based; details: human PBMCs stimulated overnight with 10 ng/mL LPS, mature IL-1β by ELISA
Procedure, shortened: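 Ficoll-isolated human PBMCs (10^6/well, RPMI with 2% human AB serum) were stimulated overnight with LPS 10 ng/mL (E. coli 0111:B4) with or without compound. Mature IL-1β in medium measured by ELISA; viability checked by MTT over a further 4 h.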

Row | SMILES | pKi [1] | pIC50 [2] | pIC50 [3] | pIC50 [4]
1 | CC(C)C(CC(=O)NCCc1ccc2ccccc2c1)C(=O)NC(CC(=O)O)C(=O)CNS(=O)(=O)CC12CCC(CC1=O)C2(C)C (centres unmarked) [Example 18, 5-(7,7-Dimethyl-2-oxo-bicyclo[2.2.1]hept-1-ylmethanesulfonylamino)-3-{3-methyl-2-[(2-naphthalen-2-yl-ethylcarbamoyl)-methyl]-butyrylamino}-4-oxo-pentanoic acid] | 7.63 | 5.52 | 7.05 | 5.69
2 | CC(C)C(CC(=O)N(C)CCc1ccccc1)C(=O)NC(CC(=O)O)C(=O)CNS(=O)(=O)CC12CCC(CC1=O)C2(C)C (centres unmarked) [Example 11, 5-(7,7-Dimethyl-2-oxo-bicyclo[2.2.1]hept-1-ylmethanesulfonylamino)-3-{3-methyl-2-[(methyl-phenethyl-carbamoyl)-methyl]-butyrylamino}-4-oxopentanoic acid] | 7.24 | 4.80 | 6.36 | 5.26

From patent EP1082127B1 (WARNER-LAMBERT COMPANY LLC, priority 1998, dated 1999)
